Assays:
Conditions in all cases: Preemergence
giant foxtail = experiment: Test B pre/postemergence giant foxtail; format: in vivo, Setaria faberii
Procedure, shortened: (§1)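 Response is a visual 0-to-10 score relative to untreated plants, where 0 means no effect and 10 means complete control, taken twelve to sixteen days after application. Treatments went onto soil at planting and onto foliage of 1- to 4-leaf plants, using a surfactant-containing non-phytotoxic solvent.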

sugar beet = experiment: Test B pre/postemergence sugar beet; format: in vivo, Beta vulgaris
Procedure, shortened: as §1

morningglory = experiment: Test B pre/postemergence morningglory; format: in vivo, Ipomoea hederacea
Procedure, shortened: as §1

velvetleaf = experiment: Test B pre/postemergence velvetleaf; format: in vivo, Abutilon theophrasti
Procedure, shortened: as §1

pigweed = experiment: Test B pre/postemergence pigweed; format: in vivo, Amaranthus retroflexus
Procedure, shortened: as §1

soybean = experiment: Test B pre/postemergence soybean; format: in vivo, Glycine max
Procedure, shortened: as §1

blackgrass = experiment: Test B pre/postemergence blackgrass; format: in vivo, Alopecurus myosuroides
Procedure, shortened: as §1

bedstraw = experiment: Test B pre/postemergence bedstraw; format: in vivo, Galium aparine
Procedure, shortened: as §1

rape = experiment: Test B pre/postemergence rape; format: in vivo, Brassica napus
Procedure, shortened: as §1

wild oat = experiment: Test B pre/postemergence wild oat; format: in vivo, Avena fatua
Procedure, shortened: as §1

crabgrass = experiment: Test B pre/postemergence crabgrass; format: in vivo, Digitaria sanguinalis
Procedure, shortened: as §1

wheat = experiment: Test B pre/postemergence wheat; format: in vivo, Triticum aestivum
Procedure, shortened: as §1

cocklebur = experiment: Test B pre/postemergence cocklebur; format: in vivo, Xanthium strumarium
Procedure, shortened: as §1

surinam grass = experiment: Test B pre/postemergence surinam grass; format: in vivo, Brachiaria decumbens
Procedure, shortened: as §1

corn = experiment: Test B pre/postemergence corn; format: in vivo, Zea mays
Procedure, shortened: as §1

purple nutsedge = experiment: Test B pre/postemergence purple nutsedge; format: in vivo, Cyperus rotundus
Procedure, shortened: as §1

[1] = Rate 62 g/ha, scale of 0 to 10 where 0 is no effect and 10 is complete control
[2] = Rate 125 g/ha, scale of 0 to 10 where 0 is no effect and 10 is complete control
[3] = Rate 250 g/ha, scale 0 (no effect) to 10 (complete control)
[4] = Rate 500 g/ha, scale 0 to 10 (0 no effect, 10 complete control)

COC(CCl)n1c(=O)on(C(=O)N(c2ccccc2)C(C)C)c1=O (stereo not shown) [Compound 735]
5: Redroot pigweed plant response rating (pigweed; [1])
2: Plant response rating, Sugarbeets (sugar beet; [2]) | Morningglory plant response rating (morningglory; [3]) | Morningglory plant response rating (morningglory; [4]) | Wheat plant response rating (wheat; [4])
10: Plant response rating, Giant foxtail (giant foxtail; [2]) | Giant foxtail plant response rating (giant foxtail; [3]) | Giant foxtail plant response rating (giant foxtail; [4]) | Plant response rating, Blackgrass (blackgrass; [2]) | Blackgrass plant response rating (blackgrass; [3]) | Blackgrass plant response rating (blackgrass; [4]) | Wild oats plant response rating (wild oat; [4]) | Crabgrass plant response rating (crabgrass; [1]) | Plant response rating, Crabgrass (crabgrass; [2]) | Crabgrass plant response rating (crabgrass; [3]) | Crabgrass plant response rating (crabgrass; [4]) | B. signalgrass plant response rating (surinam grass; [4])
9: Giant foxtail plant response rating (giant foxtail; [1]) | Redroot pigweed plant response rating (pigweed; [4]) | B. signalgrass plant response rating (surinam grass; [3]) | Corn plant response rating (corn; [4])
0: Sugarbeets plant response rating (sugar beet; [1]) | Morningglory plant response rating (morningglory; [1]) | Plant response rating, Morningglory (morningglory; [2]) | Velvetleaf plant response rating (velvetleaf; [1]) | Plant response rating, Velvetleaf (velvetleaf; [2]) | Soybean plant response rating (soybean; [1]) | Plant response rating, Soybean (soybean; [2]) | Soybean plant response rating (soybean; [3]) | Soybean plant response rating (soybean; [4]) | Bedstraw plant response rating (bedstraw; [1]) | Plant response rating, Bedstraw (bedstraw; [2]) | Bedstraw plant response rating (bedstraw; [3]) | Bedstraw plant response rating (bedstraw; [4]) | Wheat plant response rating (wheat; [1]) | Plant response rating, Wheat (wheat; [2]) | Cocklebur plant response rating (cocklebur; [1]) | Plant response rating, Cocklebur (cocklebur; [2]) | Cocklebur plant response rating (cocklebur; [3]) | Cocklebur plant response rating (cocklebur; [4]) | Corn plant response rating (corn; [1]) | Nutsedge plant response rating (purple nutsedge; [1]) | Nutsedge plant response rating (purple nutsedge; [3])
1: Rape plant response rating (rape; [1])
3: Velvetleaf plant response rating (velvetleaf; [3]) | Velvetleaf plant response rating (velvetleaf; [4])
8: Redroot pigweed plant response rating (pigweed; [3]) | Blackgrass plant response rating (blackgrass; [1]) | Rape plant response rating (rape; [3]) | Rape plant response rating (rape; [4]) | Plant response rating, Wild oats (wild oat; [2]) | Wild oats plant response rating (wild oat; [3]) | Plant response rating, B. signalgrass (surinam grass; [2]) | Corn plant response rating (corn; [3])
6: Sugarbeets plant response rating (sugar beet; [3]) | Plant response rating, Rape (rape; [2]) | Wild oats plant response rating (wild oat; [1]) | Plant response rating, Corn (corn; [2])
7: Sugarbeets plant response rating (sugar beet; [4]) | Plant response rating, Redroot pigweed (pigweed; [2]) | B. signalgrass plant response rating (surinam grass; [1])
